Consider 11 molecules from patent publication US4367339A, “Substituted N-nitroaniline compounds and inorganic and organic salts thereof useful for enhancing auxiliary branching, canopy flowering and crop yield of plant and as lodging inhibitors therefor” (priority 1980, dated 1983).

Data set [1] has as its system soybean (Glycine max) Adelphia. The experiment in a line: Dwarfing and stem stiffening of soybeans (plant height, greenhouse, foliar spray). The format is in vivo. As to conditions: three weeks after spraying. On the procedure:
In the following tests, test compounds are dissolved or dispersed in acetone-water (1:1) mixtures at the final concentration corresponding to the kg/ha rates indicated in the table below. The solution also contains 0.25% v/v colloidal BIOFILM® (a product of Colloidal Products Corp.) which is a mixture of alkyl aryl polyethoxyethanol, free and combined fatty acids, glycol ethers, dialkylbenzene carboxylate and 2-propanol.
The plant species used in these tests are barley (Hordeum vulgare), (Mexico) and soybean (Glycine max)Adelphia.
The solution or dispersion of the compound under test is sprayed at a rate of 747 l/ha with a moving nozzle along an overhead stationary track. The spray nozzle moves at a constant speed over the plants.
The plants are grown in plastic pots, and are well established at the time of treatment. The seedlings of barley are 10 to 20 cm in height, while the seedlings of soybeans are at the second to third trifoliate stage. Plants are watered prior to treatment and then sprayed to provide the kg/ha rate of test compound desired. After spraying the plants are placed on greenhouse benches and watered and fertilized in accordance with normal greenhouse procedures.
Three weeks after spraying the plants are measured and harvested. Harvesting is done at the boot stage. All treatments are replicated six times and comparisons are made against untreated controls. Data obtained are reported in Table VI below as percent reduction in plant height over untreated controls.

Data set [2] deals with barley (Hordeum vulgare, var. Georgie). Kind of data set: Antilodging effects on barley. In kind it is in vivo. Also on record: key to Tiller formation / Stem stiffness: 5 = no increase over controls, 3 = moderate significant increase. As to conditions: for Stem stiffness / Tiller formation: control 5; for Weight Dry: control 5.2; for Weight Fresh: control 49.1; for Height: control 53.1; for Phytotoxicity: three weeks after spraying. On the procedure: In this experiment the procedure of Example 7 is repeated excepting that the crop used was barley (Hordeum vulgare, var. Georgie; European lodging prone variety). The plants are treated at the 3-4 leaf stage. Plants are watered prior to treatment and then sprayed to provide the kg/ha rate of test compound desired. After spraying the plants are placed on greenhouse benches and watered and fertilized in accordance with normal greenhouse procedures.
Three weeks after spraying the plants are measured and harvested. All treatments are replicated six times and companions are made against untreated controls.
The following rating system is used:
5=No increase over controls
3=Moderate, significant increase over controls.

Where a name gives a salt, the structure may show the parent alone. Bounds are passed on as bounds.

With “1,2-Dimethyl-3,5-diphenylpyrazolium salt with 2,6-dibromo-α,α,α-trifluoro-N--aci-nitro-o-toluidine”, the “% Reduction in Plant Height over untreated controls” value in data set [1] (rate 0.125 kg/ha) is listed as over 10%; in data set [1] (rate 0.25 kg/ha), over 15%; in data set [1] (rate 0.5 kg/ha) it was over 20%.
The matching figures for `Cn1c(-c2ccccc2)cc(-c2ccccc2)[n+]1C.O=[N+]([O-])[N-]c1c(Cl)cc(Cl)cc1Cl` [1,2-Dimethyl-3,5-diphenylpyrazolium salt with 2,4,6-trichloro-N--aci-nitroaniline]: over 10%, over 15% and over 25%.
The matching figures for `O=[N+]([O-])Nc1c(Br)cc(Br)cc1Br` [1-Hexadecylpyridinium salt with 2,4,6-tribromo-N-- aci-nitro] [1-Hexadecylpyridinium salt with 2,4,6-tribromo-N-- aci-nitroaniline]: over 35%, over 35% and over 50%.
`N#Cc1ccc(N[N+](=O)[O-])c(Br)c1` [2-Bromo-4-cyano-N--nitroaniline]: in data set [2] (rate 0.25 kg/ha), the Stem stiffness is on record as 5 (No increase over controls), the Tiller formation is recorded as 4, the “Weight Dry” value came to 7.4 g and the “Weight Fresh” value turned out to be 62.2 g. Also, in data set [2] (rate 0.25 kg/ha), the Height is reported as 53.0 cm and the Phytotoxicity is 5 (No increase over controls). In addition, in data set [2] (rate 0.5 kg/ha), the Stem stiffness was 5 (No increase over controls), the Tiller formation was 4, the “Weight Dry” value stood at 7.0 g and the “Weight Fresh” value is listed as 59.2 g. In data set [2] (rate 0.5 kg/ha), the Height is recorded as 53.3 cm and the Phytotoxicity is 5 (No increase over controls). In addition, in data set [2] (rate 1.0 kg/ha), the Stem stiffness is 5 (No increase over controls), the Tiller formation was 5 (No increase over controls), the “Weight Dry” value is on record as 7.0 g and the “Weight Fresh” value amounted to 60.9 g. Also, in data set [2] (rate 1.0 kg/ha), the Height worked out at 53.2 cm and the Phytotoxicity is 5 (No increase over controls).
Regarding `CCc1cccc(C(C)C)c1N[N+](=O)[O-]` [2-Ethyl-6-isopropyl-N--nitroaniline], in data set [2] (rate 0.25 kg/ha), the Stem stiffness is listed as 4, the Tiller formation was determined as 4, the “Weight Fresh” value amounted to 50.5 g and the Height was 47.7 cm. The Phytotoxicity in data set [2] (rate 0.25 kg/ha) is on record as 5 (No increase over controls). Also, in data set [2] (rate 0.5 kg/ha), the Stem stiffness was determined as 4; the Tiller formation is listed as 3 (Moderate, significant increase over controls.); the “Weight Dry” value stood at 5.9 g; the “Weight Fresh” value came to 59.3 g. Further, in data set [2] (rate 0.5 kg/ha), the Height was determined as 48.7 cm and the Phytotoxicity was 5 (No increase over controls). For the same molecule, in data set [2] (rate 1.0 kg/ha), the Stem stiffness is on record as 4, the Tiller formation worked out at 4, the “Weight Dry” value stood at 5.4 g and the “Weight Fresh” value amounted to 56.5 g. In data set [2] (rate 1.0 kg/ha), the Height was 51.0 cm and the Phytotoxicity is listed as 5 (No increase over controls).
For the molecule `Cc1cc(C)c(N[N+](=O)[O-])c(I)c1` [2-Iodo-4,6-dimethyl-N--nitroaniline], in data set [2] (rate 0.25 kg/ha), the Stem stiffness is listed as 5 (No increase over controls), the Tiller formation is recorded as 5 (No increase over controls), the “Weight Fresh” value is reported as 54.1 g and the Height stood at 52.7 cm. For the same molecule, the Phytotoxicity in data set [2] (rate 0.25 kg/ha) was 5 (No increase over controls). Moreover, in data set [2] (rate 0.5 kg/ha), the Stem stiffness is recorded as 5 (No increase over controls), the Tiller formation is listed as 5 (No increase over controls), the “Weight Fresh” value was 52.7 g and the Height came to 52.5 cm. In addition, the Phytotoxicity in data set [2] (rate 0.5 kg/ha) is 5 (No increase over controls). In data set [2] (rate 1.0 kg/ha), the Stem stiffness is 5 (No increase over controls), the Tiller formation is given as 5 (No increase over controls), the “Weight Dry” value stood at 6.2 g and the “Weight Fresh” value is listed as 58.0 g. Also, in data set [2] (rate 1.0 kg/ha), the Height stood at 53.5 cm and the Phytotoxicity is given as 5 (No increase over controls).
`O=[N+]([O-])Nc1c(Br)cc(Br)cc1Br` [Dibenzylamine(1:1)with 2,4,6-tribromo-N--nitroaniline]: the “% Reduction in Plant Height over untreated controls” value in data set [1] (rate 0.125 kg/ha) was over 25%; in data set [1] (rate 0.25 kg/ha) it was over 35%; in data set [1] (rate 0.5 kg/ha), over 50%.
Take `O=[N+]([O-])Nc1c(Br)cccc1Br` [Sodium salt of 2,6-dibromo-N--nitroaniline]: in data set [2] (rate 0.25 kg/ha), the Stem stiffness turned out to be 4, the Tiller formation was determined as 4, the “Weight Fresh” value was determined as 55.6 g and the Height is 50.2 cm. Moreover, the Phytotoxicity in data set [2] (rate 0.25 kg/ha) is 5 (No increase over controls). Besides, in data set [2] (rate 0.5 kg/ha), the Stem stiffness amounted to 4; the Tiller formation is recorded as 3 (Moderate, significant increase over controls.); the “Weight Dry” value was determined as 6.4 g; the “Weight Fresh” value is 57.6 g. For the same molecule, in data set [2] (rate 0.5 kg/ha), the Height is given as 47.2 cm and the Phytotoxicity is given as 5 (No increase over controls). In data set [2] (rate 1.0 kg/ha), the Stem stiffness is on record as 3 (Moderate, significant increase over controls.); the Tiller formation is reported as 3 (Moderate, significant increase over controls.); the “Weight Fresh” value came out at 55.5 g; the Height is reported as 47.0 cm. In addition, the Phytotoxicity in data set [2] (rate 1.0 kg/ha) is 5 (No increase over controls).
Regarding `O=[N+]([O-])Nc1cccc(Cl)c1Cl` [Sodium salt with 2,3-dichloro-N--nitroaniline], in data set [2] (rate 0.25 kg/ha), the Stem stiffness is 5 (No increase over controls), the Tiller formation was 5 (No increase over controls), the “Weight Dry” value stood at 8.2 g and the “Weight Fresh” value is on record as 60.9 g. Besides, in data set [2] (rate 0.25 kg/ha), the Height is given as 53.3 cm and the Phytotoxicity is given as 5 (No increase over controls). In data set [2] (rate 0.5 kg/ha), the Stem stiffness is on record as 5 (No increase over controls), the Tiller formation is on record as 5 (No increase over controls), the “Weight Dry” value stood at 7.1 g and the “Weight Fresh” value is recorded as 58.7 g. Moreover, in data set [2] (rate 0.5 kg/ha), the Height came out at 53.8 cm and the Phytotoxicity is on record as 5 (No increase over controls). Further, in data set [2] (rate 1.0 kg/ha), the Stem stiffness was 5 (No increase over controls), the Tiller formation is reported as 5 (No increase over controls), the “Weight Dry” value is given as 6.0 g and the “Weight Fresh” value is reported as 57.5 g. For the same molecule, in data set [2] (rate 1.0 kg/ha), the Height is given as 52.2 cm and the Phytotoxicity was 5 (No increase over controls).
On to `O=[N+]([O-])Nc1c(Br)cccc1Br` [Tallowamine compound with 2,6-dibromo-N--nitroaniline], for which, in data set [2] (rate 0.25 kg/ha), the Stem stiffness was 4, the Tiller formation is given as 5 (No increase over controls), the “Weight Dry” value is listed as 6.8 g and the “Weight Fresh” value was found to be 62.3 g. For the same molecule, in data set [2] (rate 0.25 kg/ha), the Height was 54.7 cm and the Phytotoxicity is 5 (No increase over controls). Besides, in data set [2] (rate 0.5 kg/ha), the Stem stiffness is recorded as 4, the Tiller formation came out at 4, the “Weight Dry” value turned out to be 7.5 g and the “Weight Fresh” value worked out at 60.1 g. Also, in data set [2] (rate 0.5 kg/ha), the Height was 48.5 cm and the Phytotoxicity is 5 (No increase over controls). In addition, in data set [2] (rate 1.0 kg/ha), the Stem stiffness came to 4, the Tiller formation turned out to be 4, the “Weight Fresh” value was 55.9 g and the Height is 48.7 cm. Further, the Phytotoxicity in data set [2] (rate 1.0 kg/ha) is given as 5 (No increase over controls).
As to `CCc1cccc(C(C)C)c1N[N+](=O)[O-]` [Tallowamine compound with 2-ethyl-6-isopropyl-N--nitroanilin] [Tallowamine compound with 2-ethyl-6-isopropyl-N--nitroaniline], in data set [2] (rate 0.25 kg/ha), the Stem stiffness worked out at 4, the Tiller formation came out at 4, the “Weight Fresh” value came to 49.2 g and the Height is given as 45.0 cm. The Phytotoxicity in data set [2] (rate 0.25 kg/ha) was 5 (No increase over controls). Also, in data set [2] (rate 0.5 kg/ha), the Stem stiffness is reported as 4, the Tiller formation is 4, the “Weight Fresh” value stood at 47.1 g and the Height was found to be 41.7 cm. Further, in data set [2] (rate 0.5 kg/ha), the Phytotoxicity is 5 (No increase over controls). For the same molecule, in data set [2] (rate 1.0 kg/ha), the Stem stiffness is on record as 4, the Tiller formation is 4, the “Weight Fresh” value is given as 52.4 g and the Height came out at 45.7 cm. Further, the Phytotoxicity in data set [2] (rate 1.0 kg/ha) is 5 (No increase over controls).
